The target of one series is T1, mouse Oct2 (mOct2) (Mus musculus, UniProt O70577).
T1 sequence (O70577 1-553): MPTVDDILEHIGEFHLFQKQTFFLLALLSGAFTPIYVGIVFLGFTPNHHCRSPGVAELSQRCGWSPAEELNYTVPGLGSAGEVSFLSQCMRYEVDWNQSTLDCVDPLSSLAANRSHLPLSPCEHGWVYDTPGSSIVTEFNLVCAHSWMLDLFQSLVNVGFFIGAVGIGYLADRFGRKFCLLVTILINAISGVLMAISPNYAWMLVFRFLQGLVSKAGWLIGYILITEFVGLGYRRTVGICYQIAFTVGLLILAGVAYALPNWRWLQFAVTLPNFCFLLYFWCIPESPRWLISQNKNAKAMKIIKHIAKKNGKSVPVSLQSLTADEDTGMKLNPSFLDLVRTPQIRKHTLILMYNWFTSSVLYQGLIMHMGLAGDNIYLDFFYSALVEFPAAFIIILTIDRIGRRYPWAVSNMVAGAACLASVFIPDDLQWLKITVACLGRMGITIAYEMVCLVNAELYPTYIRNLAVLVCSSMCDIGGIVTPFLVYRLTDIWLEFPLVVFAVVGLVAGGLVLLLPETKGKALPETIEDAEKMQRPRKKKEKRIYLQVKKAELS
Put plainly: Inhibition of metformin accumulation in HEK-293 cells stably expressing mOct2. In kind it is cell-based.

In another series the target is mouse Mate1 (mMate1) (Mus musculus, UniProt Q8K0H1). Put plainly: Inhibition of metformin accumulation in HEK-293 cells stably expressing mMate1. It counts as cell-based.
mouse Mate1 (mMate1), sequence (Q8K0H1 whole entry): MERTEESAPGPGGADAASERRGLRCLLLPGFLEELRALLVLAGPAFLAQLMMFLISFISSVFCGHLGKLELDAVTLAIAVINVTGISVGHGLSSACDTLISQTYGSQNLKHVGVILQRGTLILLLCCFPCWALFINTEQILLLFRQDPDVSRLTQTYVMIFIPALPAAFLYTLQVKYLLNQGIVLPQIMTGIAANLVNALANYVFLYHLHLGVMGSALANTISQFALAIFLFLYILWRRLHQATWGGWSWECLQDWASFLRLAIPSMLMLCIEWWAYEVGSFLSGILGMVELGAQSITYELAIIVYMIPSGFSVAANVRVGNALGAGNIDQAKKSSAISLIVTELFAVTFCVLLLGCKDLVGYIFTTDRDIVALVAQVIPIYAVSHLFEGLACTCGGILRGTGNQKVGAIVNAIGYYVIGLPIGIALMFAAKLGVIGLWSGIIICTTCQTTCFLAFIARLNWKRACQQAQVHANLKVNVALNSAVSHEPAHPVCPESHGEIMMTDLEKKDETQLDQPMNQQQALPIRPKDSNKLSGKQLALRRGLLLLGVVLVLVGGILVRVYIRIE
The conditions of series [1]: mouse, in vivo, 10 mg/kg.
The format of series [2] is in vivo, mice. The note with it: mouse, kidney, intraperitoneal, 7.5 mg/kg, Metformin accumulation in the kidney.
The nature of the next series: in vivo. The note with it: mouse, AUC0–120min of metformin.

Like-named read-outs stand apart in the source and are kept apart here.

Usually Ki stands for a measure of affinity in units of concentration, obtained from inhibition or displacement. Read a high Ki as a looser hold on the target. For `Cc1nccn1CC1CCc2c(c3ccccc3n2C)C1=O` (stereo not drawn) [ondansetron], the values for the Ki on mouse Oct2 (mOct2) and on mouse Mate1 (mMate1) were 3.5 µM and 0.07 µM, respectively. The “Effect on hepatic platinum accumulation” value in series [1] is “did not observe a significant effect”.
Usually AUC(0-t) stands for exposure summed from dosing to a finite time, without extrapolation to infinity. Read a low AUC(0-t) as less exposure. On to `CN(C)C(=N)N=C(N)N` [metformin], for which the concentration at 30 min in series [2] (Mate1−/− mice, saline (Fig. 4A)) worked out at 917 ± 89.6 ng/g; in series [2] (wild-type mice, saline, genotype study (Fig. 4A)) it was 114 ± 21.8 ng/g. The molecule also had an AUC(0-t) in the series “in vivo” of 2030 ng·h/mL.

(Values after paper PMC3830718 (Toxicology and applied pharmacology, 2013).)
